The conditions of experiment [1]: rat; FAD286 after 4 weeks, spironolactone at 4 and 8 weeks of treatment; cited from earlier work.
A further experiment addresses CYP11B2 (Homo sapiens, UniProt P19099). Conditions: patients with primary aldosteronism, oral; cited from earlier work.
In the next experiment the target is T1, human CYP11B2 (Homo sapiens, UniProt P19099).
T1 construct: expressed in transfected cells
T1 sequence (P19099 25-503): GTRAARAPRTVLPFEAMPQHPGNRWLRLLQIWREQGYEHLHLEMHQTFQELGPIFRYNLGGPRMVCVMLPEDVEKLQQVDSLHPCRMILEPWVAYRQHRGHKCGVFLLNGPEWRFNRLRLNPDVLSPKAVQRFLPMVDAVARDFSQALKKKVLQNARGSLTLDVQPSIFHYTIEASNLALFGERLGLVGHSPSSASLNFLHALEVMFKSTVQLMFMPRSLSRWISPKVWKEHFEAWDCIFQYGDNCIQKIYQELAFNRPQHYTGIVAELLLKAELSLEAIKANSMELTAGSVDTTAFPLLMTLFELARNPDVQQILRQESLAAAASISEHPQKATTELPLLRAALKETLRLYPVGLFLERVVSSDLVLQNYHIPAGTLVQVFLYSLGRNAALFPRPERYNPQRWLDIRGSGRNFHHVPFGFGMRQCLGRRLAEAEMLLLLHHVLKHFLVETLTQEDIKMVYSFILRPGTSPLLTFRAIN
The experiment is described as follows: G-402 cellular enzyme assay, human CYP11B2 (aldosterone release, HTRF). Conditions: G-402 cells, 1 μM Deoxycorticosterone. Type of experiment: cell-based. In short, it runs like this: (§1)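 G-402 cells stably expressing human CYP11B1 or CYP11B2, in DMEM/F12 with 2.5% charcoal-treated FCS, were incubated 16 h with test compound and substrate (1 μM 11-deoxycortisol for CYP11B1; 1 μM deoxycorticosterone for CYP11B2). Cortisol or aldosterone in supernatant was quantified by HTRF; EC50 from 4-parameter MMF fit.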
On the technique in general: In TR-FRET formats the signal depends on donor and acceptor labels being close together.

In another experiment the target is T2, human CYP11B1 (Homo sapiens, UniProt P15538).
T2 construct: expressed in transfected cells
T2 sequence (P15538 25-503): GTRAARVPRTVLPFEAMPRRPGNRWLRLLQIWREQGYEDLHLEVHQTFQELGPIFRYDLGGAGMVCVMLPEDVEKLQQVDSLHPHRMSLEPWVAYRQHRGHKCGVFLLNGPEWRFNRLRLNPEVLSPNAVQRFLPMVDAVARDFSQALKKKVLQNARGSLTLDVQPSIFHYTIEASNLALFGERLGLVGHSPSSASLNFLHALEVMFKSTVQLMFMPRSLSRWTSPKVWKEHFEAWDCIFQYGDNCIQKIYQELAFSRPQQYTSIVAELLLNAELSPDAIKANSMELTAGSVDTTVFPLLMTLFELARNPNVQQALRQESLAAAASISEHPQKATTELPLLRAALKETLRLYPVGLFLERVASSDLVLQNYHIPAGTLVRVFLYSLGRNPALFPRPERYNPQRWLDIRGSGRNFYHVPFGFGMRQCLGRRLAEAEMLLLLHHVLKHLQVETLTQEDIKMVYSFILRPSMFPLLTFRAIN
As to the kind of experiment: G-402 cellular enzyme assay, human CYP11B1 (cortisol release, HTRF). Type of experiment: cell-based. Conditions: G-402 cells, 1 μM Deoxycortisol. In short, it runs like this: as §1

On to `N#Cc1ccc([C@H]2CCCc3cncn32)cc1` [FAD286], for which the plasma aldosterone result in experiment [1] is recorded as “reduced”. For `N#Cc1ccc([C@H]2CCc3cncn32)c(F)c1` [LCI699], on CYP11B2, the circulating aldosterone levels entry is given as “significantly lower”.

Consider `CC(=O)S[C@@H]1CC2=CC(=O)CC[C@]2(C)[C@H]2CC[C@@]3(C)[C@@H](CC[C@@]34CCC(=O)O4)[C@H]12` [spironolactone], for which the plasma aldosterone result in experiment [1] is “increased”. As a reminder, the EC50 is the concentration at which the effect is half-maximal. A low value points to a more potent agent. `CC1(C)c2cc(Cl)ccc2C(=O)N1c1cncc(Cn2cccn2)c1` [Example 379, 5-Chloro-3,3-dimethyl-2-(5-pyrazol-1-ylmethyl-pyridin-3-yl)-2,3-dihydro-isoindol-1-one]: the figures for the EC50 on human CYP11B2 and on human CYP11B1 were 25.8 nM and 370 nM, respectively.

For `O=C(Cc1cncc(N2CCc3cc(Cl)ccc3C2=O)c1)N1CCOCC1` [Example 263, 6-Chloro-2-[5-(2-morpholin-4-yl-2-oxo-ethyl)-pyridin-3-yl]-3,4-dihydro-2H-isoquinolin-1-one], the concentration for a half-maximal effect (EC50) at human CYP11B2 was 491 nM; on human CYP11B1, 4930 nM.

Consider `Nc1ccn(Cc2cncc(N3CCc4cc(Cl)ccc4C3=O)c2)n1` [Example 382, 2-[5-(3-Amino-pyrazol-1-ylmethyl)-pyridin-3-yl]-6-chloro-3,4-dihydro-2H-isoquinolin-1-one], for which the EC50 on human CYP11B2 amounted to 33.9 nM; on human CYP11B1, 1520 nM.

With `CC[C@@H]1c2cc(Cl)ccc2C(=O)N1c1cncc2c1CC[C@H]2NC(C)=O` (single isomer, unassigned) [Example 344, (+)-N—[(R or S)-4-((R or S)-5-Chloro-3-ethyl-1-oxo-1,3-dihydro-isoindol-2-yl)-6,7-dihydro-5H-[2]pyrindin-7-yl]-acetamide], the EC50 is 31.2 nM at human CYP11B2 and 1500 nM at human CYP11B1. The like results for `O=C1c2ccc(Cl)cc2CCN1c1cncc(NS(=O)(=O)c2ccccc2)c1` [Example 219, N-[5-(6-Chloro-1-oxo-3,4-dihydro-1H-isoquinolin-2-yl)-pyridin-3-yl]-benzenesulfonamide] were, in that order, 2220 nM and 17600 nM.

Consider `CC1(C)c2cc(Cl)ccc2C(=O)N1c1cncc(OC2CN(S(C)(=O)=O)C2)c1` [Example 452, 5-Chloro-2-[5-(1-methanesulfonyl-azetidin-3-yloxy)-pyridin-3-yl]-3,3-dimethyl-2,3-dihydro-isoindol-1-one], for which the EC50 was found to be 26.8 nM at human CYP11B2 and 1740 nM on human CYP11B1. The like results for `CC1(C)c2nc(Cl)ccc2C(=O)N1c1cncc(OC(F)F)c1` [Example 293, 2-Chloro-6-(5-difluoromethoxy-pyridin-3-yl)-7,7-dimethyl-6,7-dihydro-pyrrolo[3,4-b]pyridin-5-one] were, in that order, 16.4 nM and 285 nM. The like results for `CCC(=O)N1CC(Oc2cncc(N3C(=O)c4ccc(Cl)cc4C3(C)C)c2)C1` [Example 451, 5-Chloro-3,3-dimethyl-2-[5-(1-propionyl-azetidin-3-yloxy)-pyridin-3-yl]-2,3-dihydro-isoindol-1-one] were, in that order, 38.9 nM and 5330 nM. The matching figures for `O=C1c2ccc(Cl)cc2CCN1c1cncc(CN2CCN(CCO)CC2)c1` [Example 165, 6-Chloro-2-{5-[4-(2-hydroxy-ethyl)-piperazin-1-ylmethyl]-pyridin-3-yl}-3,4-dihydro-2H-isoquinolin-1-one]: 3.5 nM and 60.4 nM.
